Read-outs that look alike come from different tables or passages of the source.
Columns and labels:
human OX2R = target: T1, human OX2R (Homo sapiens, UniProt O43614); assay: Agonist activity against OX2R: intracellular calcium (Fura-2AM, FDSS7000) in CHOOX2R cells; assay type: cell-based; conditions: relative to orexin-A as full agonist (100%)
T1 construct: expressed in transfected cells; host or cells: CHO (Chinese hamster ovary) cells, line CHOOX2R, co-expressing NFAT-luciferase
T1 sequence (O43614 1-444): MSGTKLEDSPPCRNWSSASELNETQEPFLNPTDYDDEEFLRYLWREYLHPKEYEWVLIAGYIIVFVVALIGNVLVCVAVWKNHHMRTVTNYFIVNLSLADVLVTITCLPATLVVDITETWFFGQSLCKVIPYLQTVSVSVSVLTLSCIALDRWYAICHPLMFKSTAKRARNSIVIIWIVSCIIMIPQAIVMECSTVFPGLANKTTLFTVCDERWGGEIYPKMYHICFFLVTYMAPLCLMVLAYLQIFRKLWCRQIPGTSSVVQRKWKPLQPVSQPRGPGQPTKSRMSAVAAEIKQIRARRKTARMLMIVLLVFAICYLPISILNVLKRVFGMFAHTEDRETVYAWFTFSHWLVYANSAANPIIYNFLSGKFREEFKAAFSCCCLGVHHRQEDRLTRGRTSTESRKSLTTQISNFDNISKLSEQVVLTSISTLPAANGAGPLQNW
Protocol: (§1) Evaluation of Agonist Activity Against OX1R and OX2R
(§2) NAFT-luciferase gene and human OX1R gene were constitutively expressed in CHO cell, which is a cell line derived from Chinese hamster ovary to establish a cell line (CHOOX1R) and NAFT-luciferase gene and human OX2R gene were constitutively expressed in CHO cell to establish a cell line (CHOOX2R). The respective cells were seeded in a 96-well Multiplate at 10,000 cells/well and cultured in a 5% FBS (Thermo Scientific)-added DMEM medium (Sigma-Aldrich) for 48 hr. The medium was removed, an assay buffer (20 mM HEPES (Sigma-Aldrich), Hanks' balanced salt solution (Gibco), 0.1% BSA (Sigma-Aldrich), 2.5 mM probenecid acid (Wako Pure Chemical Industries, Ltd.)) (100 μL) containing 5 μM Fura-2AM (Cayman Chemical) was added, and the cells were incubated for 60 min. The buffer containing Fura-2AM was removed, and an assay buffer (75 μL) was added. An assay buffer (25 μL) containing a test compound was added thereto to start the reaction. Changes in the intracellular calcium ion concentration due to the reaction were measured by measuring the fluorescence intensity ratio by dual wavelength excitation at 340 and 380 nm, by using FDSS7000 (Hamamatsu Photonics K.K.). The test compound was dissolved in DMSO to 10 mM, and diluted with the assay buffer to a final concentration of 10^−7M to 10^−5M (final concentration of DMSO 1%).
(§3) (As used herein, Response in Table 21 to Table 27 is a value obtained by dividing the agonist activity value, when the test compound is evaluated with orexin-A as a full-agonist (maximum value of agonist activity: 100%), at 10 μM, 1.0 μM, 0.1 μM by the agonist activity value of orexin-A.)

human OX1R = target: T2, human OX1R (Homo sapiens, UniProt O43613); assay: Agonist activity against OX1R: intracellular calcium (Fura-2AM, FDSS7000) in CHOOX1R cells; assay type: cell-based; conditions: relative to orexin-A as full agonist (100%); for Emax at 0.1 µM / Emax at 1 µM / Emax at 10 µM: read-out: Response (%) OX1R
T2 construct: expressed in transfected cells; host or cells: CHO (Chinese hamster ovary) cells, line CHOOX1R, co-expressing NFAT-luciferase
T2 sequence (O43613 1-425): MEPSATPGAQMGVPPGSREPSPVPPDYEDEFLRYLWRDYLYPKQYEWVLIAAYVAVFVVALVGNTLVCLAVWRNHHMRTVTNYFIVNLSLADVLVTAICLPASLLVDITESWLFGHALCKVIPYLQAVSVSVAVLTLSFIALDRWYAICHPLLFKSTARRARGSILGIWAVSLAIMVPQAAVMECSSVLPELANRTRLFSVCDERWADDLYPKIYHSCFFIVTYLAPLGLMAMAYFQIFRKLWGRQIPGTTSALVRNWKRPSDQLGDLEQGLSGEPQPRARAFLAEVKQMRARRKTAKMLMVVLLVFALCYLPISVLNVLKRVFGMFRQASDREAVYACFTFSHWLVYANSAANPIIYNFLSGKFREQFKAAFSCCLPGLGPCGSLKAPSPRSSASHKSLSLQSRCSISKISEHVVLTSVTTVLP
Protocol: as §1, §2, §3

Row | SMILES | Response (%) OX2R (human OX2R; 0.1 μM test compound) [%] | Response (%) OX2R (human OX2R; 1.0 μM test compound) [%] | Response (%) OX2R (human OX2R; 10 μM test compound) [%] | Response (%) OX1R (human OX1R; 0.1 μM test compound) [%] | Response (%) OX1R (human OX1R; 1.0 μM test compound) [%] | Response (%) OX1R (human OX1R; 10 μM test compound) [%] | Response (%) OX2R (human OX2R; test compound 0.1 μM) [%] | Response (%) OX2R (human OX2R; test compound 1.0 μM) [%] | Response (%) OX2R (human OX2R; test compound 10 μM) [%] | also measured
1 | COc1ccc(-c2cccc(C(=O)N(C)C)c2)cc1S(=O)(=O)Nc1cccc(NC(=O)NCc2ccccc2)c1 [Example 66] | 79 | 70 | 60 | 6 | 6 | 7 |  |  |  | 
2 | COc1ccc(-c2cccc(C(=O)N(C)C)c2)cc1S(=O)(=O)Nc1cccc(N2CCN(C(=O)c3cccc(C)c3)C2)c1 [Example 93, 4′-methoxy-N,N-dimethyl-3′-(N-(3-(3-(3-methylbenzoyl)imidazolidin-1-yl)phenyl)sulfamoyl)-[1,1′-biphenyl]-3-carboxamide] |  |  |  |  |  |  | 16 | 77 | 85 | Emax at 0.1 µM (human OX1R; test compound 0.1 μM): 10%; Emax at 1 µM (human OX1R; test compound 1.0 μM): 9%; Emax at 10 µM (human OX1R; test compound 10 μM): 20%
3 | Cc1ccc(-c2cccc(C(=O)N(C)C)c2)cc1S(=O)(=O)Nc1cccc(NC(=O)Nc2cccc(N(C)C)c2)c1 [Example 117] |  |  |  |  |  |  | <5 | 16 | 44 | Response (%) OX1R (human OX1R; test compound 0.1 μM): <5%; Response (%) OX1R (human OX1R; test compound 1.0 μM): <5%; Response (%) OX1R (human OX1R; test compound 10 μM): <5%
4 | COc1ccc(NC(=O)Nc2cccc(NS(=O)(=O)c3cc(-c4cccc(C(=O)N(C)C)c4)ccc3OC)c2)cc1 [Example 53] | 98 | 95 | 100 | <8 | 6 | 26 |  |  |  | 
5 | COc1ccc(-c2cccc(C(=O)N(C)C)c2)cc1S(=O)(=O)Nc1cccc(NCc2cccc(C)c2)c1 [Example 25] | 21 | 88 | 97 | <5 | <5 | 32 |  |  |  | 
6 | COc1ccc(-c2cccc(C(=O)N(C)C)c2)cc1S(=O)(=O)Nc1cccc(NC(=O)Nc2ccc(Br)cc2)c1 [Example 42] | 93 | 109 | 95 | <5 | <5 | <5 |  |  |  | 
7 | COc1ccc(C(=O)NCCCNC(=O)OC(C)(C)C)cc1S(=O)(=O)Nc1cccc(NC(=O)Nc2ccccc2N(C)C)c1 [Example 112, tert-butyl (3-(3-(N-(3-(3-(2-(dimethylamino)phenyl)ureido)phenyl)sulfamoyl)-4-methoxybenzamido)propyl)carbamate] |  |  |  |  |  |  | <5 | 26 | 69 | Emax at 0.1 µM (human OX1R; test compound 0.1 μM): < 5%; Emax at 1 µM (human OX1R; test compound 1.0 μM): < 5%; Emax at 10 µM (human OX1R; test compound 10 μM): < 5%
8 | COc1ccc(-c2cccc(C(=O)N(C)C)c2)cc1S(=O)(=O)Nc1cccc(NC(=O)Nc2ccc(NC(=NC(=O)OC(C)(C)C)NC(=O)OC(C)(C)C)cc2)c1 [Example 58] | <5 | <5 | 63 | <5 | <5 | <5 |  |  |  | 
9 | COc1ccc(-c2cccc(C(=O)N(C)C)c2)cc1S(=O)(=O)Nc1cccc(NC(=O)Nc2ccc(N)cc2)c1 [Example 55] | <5 | 54 | 105 | <5 | <5 | <5 |  |  |  | 
10 | COc1cccc(Nc2cccc(NS(=O)(=O)c3cc(-c4cccc(C(=O)N(C)C)c4)ccc3OC)c2)c1 [Example 32] | 13 | 79 | 88 | <5 | <5 | 14 |  |  |  | 
11 | COc1ccc(C(=O)N(C)C)cc1S(=O)(=O)Nc1cccc(NC(=O)Nc2ccccc2N(C)C)c1 [Example 114] |  |  |  |  |  |  | <5 | <5 | 28 | Response (%) OX1R (human OX1R; test compound 0.1 μM): <5%; Response (%) OX1R (human OX1R; test compound 1.0 μM): <5%; Response (%) OX1R (human OX1R; test compound 10 μM): <5%
12 | COc1ccc(-c2cccc(C(=O)N(C)C)c2)cc1S(=O)(=O)Nc1cccc(N2CCCN(c3ccc(N(C)C)cc3)C2=O)c1 [Example 135] |  |  |  |  |  |  | 94 | 66 | 64 | Response (%) OX1R (human OX1R; test compound 0.1 μM): 8%; Response (%) OX1R (human OX1R; test compound 1.0 μM): 14%; Response (%) OX1R (human OX1R; test compound 10 μM): 83%
13 | COc1ccc(C(=O)NCC(C)(C)CN(C)C)cc1S(=O)(=O)Nc1cccc(NC(=O)Nc2cccc(N(C)C)c2)c1 [Example 107] |  |  |  |  |  |  | 7 | 9 | 80 | Response (%) OX1R (human OX1R; test compound 0.1 μM): <5%; Response (%) OX1R (human OX1R; test compound 1.0 μM): <5%; Response (%) OX1R (human OX1R; test compound 10 μM): <5%
14 | COc1ccc(-c2cccc(C(=O)N(C)C)c2)cc1S(=O)(=O)Nc1cccc(NCc2ccccc2C)c1 [Example 24] | <5 | 72 | 93 | <5 | <5 | 6 |  |  |  | 
15 | COc1ccc(-c2cccc(C(=O)N(C)C)c2)cc1S(=O)(=O)Nc1cccc(NS(=O)(=O)Nc2cccc(C)c2)c1 [Example 90] |  |  |  |  |  |  | <5 | 56 | 89 | Response (%) OX1R (human OX1R; test compound 0.1 μM): <5%; Response (%) OX1R (human OX1R; test compound 1.0 μM): <5%; Response (%) OX1R (human OX1R; test compound 10 μM): <5%
16 | CNc1cccc(NS(=O)(=O)c2cc(-c3cccc(C(=O)N(C)C)c3)ccc2OC)c1 [Example 95, 4′-methoxy-N,N-dimethyl-3′-(N-(3-(methylamino)phenyl)sulfamoyl)-[1,1′-biphenyl]-3-carboxamide] |  |  |  |  |  |  | <5 | 11 | 68 | Emax at 0.1 µM (human OX1R; test compound 0.1 μM): < 5%; Emax at 1 µM (human OX1R; test compound 1.0 μM): < 5%; Emax at 10 µM (human OX1R; test compound 10 μM): < 5%
17 | COc1ccc(-c2cccc(C(=O)N(C)C)c2)cc1S(=O)(=O)Nc1cccc(Nc2cccc(C(F)(F)F)c2)c1 [Example 35] | <5 | 35 | 63 | <5 | <5 | <5 |  |  |  | 
18 | COc1ccc(-c2cccc(C(=O)N(C)C)c2)cc1S(=O)(=O)Nc1cccc(NC(=O)c2ccc(C)cc2)c1 [Example 17] | <5 | 9 | 41 | <5 | <5 | 13 |  |  |  | 
19 | COc1ccc(-c2cccc(C(=O)N(C)C)c2)cc1S(=O)(=O)Nc1cccc(NC(=N)Nc2ccccc2)c1 [Example 77, 4′-methoxy-N,N-dimethyl-3′-(N-(3-(3-phenylguanidino)phenyl)sulfamoyl)-[1,1′-biphenyl]-3-carboxamide] | <5 | 51 | 99 |  |  |  |  |  |  | Emax at 0.1 µM (human OX1R; 0.1 μM test compound): < 5%; Emax at 1 µM (human OX1R; 1.0 μM test compound): < 5%; Emax at 10 µM (human OX1R; 10 μM test compound): < 5%

From patent US10351522B2, “Sulfonamide derivative and pharmaceutically acceptable acid addition salt thereof” (UNIVERSITY OF TSUKUBA, priority 2015, dated 2019)
